Article PMC5218480 (PLoS ONE, 2017)

Test system: MV-4-11 cells
Assay: Gene expression microarray analysis (Affymetrix PrimeView) and GSEA
Assay type: cell-based, human
Design: RFU PODN (11730768_x_at) / Fold change /veh PODN (11730768_x_at) / RFU LINC00158 (11744669_a_at) / Fold change /veh LINC00158 (11744669_a_at) / RFU DUSP10 (11751237_a_at) / Fold change /veh DUSP10 (11751237_a_at) / RFU ID3 (11757404_x_at) / Fold change /veh ID3 (11757404_x_at) / RFU PLEKHG5 (11737974_s_at) / Fold change /veh PLEKHG5 (11737974_s_at) / RFU LRRC4B (11730491_at) / Fold change /veh LRRC4B (11730491_at) / RFU GIMAP4 (11747438_a_at) / Fold change /veh GIMAP4 (11747438_a_at) / RFU KRT8 (11758183_x_at) / Fold change /veh KRT8 (11758183_x_at) / RFU CNN1 (11734310_a_at) / Fold change /veh CNN1 (11734310_a_at) / RFU VPS37D (11726825_at) / Fold change /veh VPS37D (11726825_at) / RFU C10orf10 (11716522_x_at) / Fold change /veh C10orf10 (11716522_x_at) / RFU KIR2DL2 /// KIR2DL4 /// KIR2DL5A /// KIR2DL5B /// KIR2DS1 /// KIR2DS2 /// KIR2DS3 /// KIR2DS4 /// KIR3DL3 /// KIR3DL3 /// KIR3DS1 (11738374_at) / Fold change /veh KIR2DL2 /// KIR2DL4 /// KIR2DL5A /// KIR2DL5B /// KIR2DS1 /// KIR2DS2 /// KIR2DS3 /// KIR2DS4 /// KIR3DL3 /// KIR3DL3 /// KIR3DS1 (11738374_at) / RFU C1QL1 (11718748_at) / Fold change /veh C1QL1 (11718748_at) / RFU TMPRSS4 (11747572_a_at) / Fold change /veh TMPRSS4 (11747572_a_at) / RFU HAMP (11756126_x_at) / Fold change /veh HAMP (11756126_x_at) / RFU RNFT2 (11725882_a_at) / Fold change /veh RNFT2 (11725882_a_at) / RFU NR4A2 (11747474_a_at) / Fold change /veh NR4A2 (11747474_a_at) / RFU ABCC12 (11746883_a_at) / Fold change /veh ABCC12 (11746883_a_at) / RFU TMEM136 (11760407_x_at) / Fold change /veh TMEM136 (11760407_x_at) / RFU CLDN22 /// WWC2 (11732394_at) / Fold change /veh CLDN22 /// WWC2 (11732394_at) / RFU HLA-DPB1 (11760878_x_at) / Fold change /veh HLA-DPB1 (11760878_x_at) / RFU SPINT1 (11716480_a_at) / Fold change /veh SPINT1 (11716480_a_at) / RFU GAP43 (11754022_s_at) / Fold change /veh GAP43 (11754022_s_at) / RFU A4GNT (11735810_at) / Fold change /veh A4GNT (11735810_at) / RFU PRB3 (11715151_x_at) / Fold change /veh PRB3 (11715151_x_at) / RFU TUBB4B (11761932_at) / Fold change /veh TUBB4B (11761932_at) / RFU CAPN14 (11732068_a_at) / Fold change /veh CAPN14 (11732068_a_at) / RFU TMCC2 (11721928_a_at) / Fold change /veh TMCC2 (11721928_a_at) / RFU IRGQ (11745062_a_at) / Fold change /veh IRGQ (11745062_a_at) / RFU FAM174B (11720279_a_at) / Fold change /veh FAM174B (11720279_a_at) / RFU TMPRSS4 (11748680_a_at) / Fold change /veh TMPRSS4 (11748680_a_at) / RFU FAM212B (11763350_a_at) / Fold change /veh FAM212B (11763350_a_at) / RFU PLEKHG5 (11743358_a_at) / Fold change /veh PLEKHG5 (11743358_a_at) / RFU ZSCAN30 (11745921_a_at) / Fold change /veh ZSCAN30 (11745921_a_at) / RFU CMKLR1 (11741424_a_at) / Fold change /veh CMKLR1 (11741424_a_at) / RFU LOC101060620 /// MAPK8IP1 (11723275_at) / Fold change /veh LOC101060620 /// MAPK8IP1 (11723275_at) / RFU SPTSSB (11747773_x_at) / Fold change /veh SPTSSB (11747773_x_at) / RFU PRSS12 (11739890_at) / Fold change /veh PRSS12 (11739890_at) / RFU BIN1 (11741810_x_at) / Fold change /veh BIN1 (11741810_x_at) / RFU WNT11 (11732464_a_at) / Fold change /veh WNT11 (11732464_a_at) / RFU C10orf10 (11716521_a_at) / Fold change /veh C10orf10 (11716521_a_at) / RFU C5orf56 (11738089_at) / Fold change /veh C5orf56 (11738089_at) / RFU CYB561 (11721691_x_at) / Fold change /veh CYB561 (11721691_x_at) / RFU ANKRD19P (11752326_a_at) / Fold change /veh ANKRD19P (11752326_a_at) / RFU OR2T12 /// OR2T33 /// OR2T8 (11738714_s_at) / Fold change /veh OR2T12 /// OR2T33 /// OR2T8 (11738714_s_at) / RFU VCAN (11748164_a_at) / Fold change /veh VCAN (11748164_a_at) / RFU JSRP1 (11732532_at) / Fold change /veh JSRP1 (11732532_at) / RFU KRTAP10-11 (11738290_x_at) / Fold change /veh KRTAP10-11 (11738290_x_at) / RFU MYO3A (11730013_a_at) / Fold change /veh MYO3A (11730013_a_at) / RFU EBF3 (11725865_a_at) / Fold change /veh EBF3 (11725865_a_at) / RFU CAMK2N1 (11719241_x_at) / Fold change /veh CAMK2N1 (11719241_x_at) / RFU C5orf56 (11738088_a_at) / Fold change /veh C5orf56 (11738088_a_at) / RFU OLFML3 (11715873_a_at) / Fold change /veh OLFML3 (11715873_a_at) / RFU LOC100653217 /// NTM (11731650_a_at) / Fold change /veh LOC100653217 /// NTM (11731650_a_at) / RFU MAPK11 (11762145_a_at) / Fold change /veh MAPK11 (11762145_a_at) / RFU FIZ1 (11724087_x_at) / Fold change /veh FIZ1 (11724087_x_at) / RFU OASL (11726364_x_at) / Fold change /veh OASL (11726364_x_at) / RFU SOX15 (11748057_x_at) / Fold change /veh SOX15 (11748057_x_at) / RFU CD79A (11719716_a_at) / Fold change /veh CD79A (11719716_a_at) / RFU HIST1H1D (11736915_at) / Fold change /veh HIST1H1D (11736915_at) / RFU CASKIN2 (11723855_a_at) / Fold change /veh CASKIN2 (11723855_a_at) / RFU LOC730098 (11760151_x_at) / Fold change /veh LOC730098 (11760151_x_at) / RFU OR4N2 (11742367_at) / Fold change /veh OR4N2 (11742367_at) / RFU PRRT2 (11749266_a_at) / Fold change /veh PRRT2 (11749266_a_at) / RFU SNX32 (11753110_a_at) / Fold change /veh SNX32 (11753110_a_at) / RFU CDHR5 (11726645_a_at) / Fold change /veh CDHR5 (11726645_a_at) / RFU RCAN1 (11760418_a_at) / Fold change /veh RCAN1 (11760418_a_at) / RFU FAM167A (11723789_a_at) / Fold change /veh FAM167A (11723789_a_at) / RFU FAM26E (11764081_at) / Fold change /veh FAM26E (11764081_at) / RFU ISYNA1 (11749810_s_at) / Fold change /veh ISYNA1 (11749810_s_at) / RFU ACY1 (11761880_at) / Fold change /veh ACY1 (11761880_at) / RFU 11764098_at / Fold change /veh 11764098_at / RFU SAMD14 (11745864_x_at) / Fold change /veh SAMD14 (11745864_x_at) / RFU NPB (11741838_a_at) / Fold change /veh NPB (11741838_a_at) / RFU TMPRSS6 (11731388_a_at) / Fold change /veh TMPRSS6 (11731388_a_at) / RFU KRTAP10-2 (11738614_at) / Fold change /veh KRTAP10-2 (11738614_at) / RFU ARHGAP8 /// PRR5-ARHGAP8 (11727945_x_at) / Fold change /veh ARHGAP8 /// PRR5-ARHGAP8 (11727945_x_at) / RFU KRTAP5-7 /// NADSYN1 (11734609_at) / Fold change /veh KRTAP5-7 /// NADSYN1 (11734609_at) / RFU RASL12 (11751679_a_at) / Fold change /veh RASL12 (11751679_a_at) / RFU CDKN2B (11736163_a_at) / Fold change /veh CDKN2B (11736163_a_at) / RFU PRF1 (11729649_at) / Fold change /veh PRF1 (11729649_at) / RFU, ZNF638 /// ZNF638-IT1 / Fold change vs veh, ZNF638 /// ZNF638-IT1 / RFU, PANK3 / Fold change vs veh, PANK3 / RFU, SH3YL1 / Fold change vs veh, SH3YL1 / RFU, ZEB2 / Fold change vs veh, ZEB2 / RFU, NRIP1 / Fold change vs veh, NRIP1 / RFU, PTTG1IP / Fold change vs veh, PTTG1IP / RFU, CAPN2 / Fold change vs veh, CAPN2 / RFU, MED14 / Fold change vs veh, MED14 / RFU, SNORA58 / Fold change vs veh, SNORA58 / RFU, C1orf63 / Fold change vs veh, C1orf63 / RFU, LRRFIP1 / Fold change vs veh, LRRFIP1 / RFU, NDUFAF7 / Fold change vs veh, NDUFAF7 / RFU, SLC12A2 / Fold change vs veh, SLC12A2 / RFU, IBTK / Fold change vs veh, IBTK / RFU, ESF1 / Fold change vs veh, ESF1 / Fold change vs veh, TMEM50B / RFU, TAOK1 / Fold change vs veh, TAOK1 / RFU, ACBD3 / Fold change vs veh, ACBD3 / RFU, TMA16 / Fold change vs veh, TMA16 / RFU, RWDD3 / Fold change vs veh, RWDD3 / RFU, BCAT1 / Fold change vs veh, BCAT1 / RFU, EDEM3 / Fold change vs veh, EDEM3 / RFU, TMEM33 / Fold change vs veh, TMEM33 / RFU, WDR75 / Fold change vs veh, WDR75 / RFU, AHCTF1 / Fold change vs veh, AHCTF1 / RFU, TFRC / Fold change vs veh, TFRC / RFU, ZDHHC17 / Fold change vs veh, ZDHHC17 / RFU, NOM1 / Fold change vs veh, NOM1 / RFU, ARL8B / Fold change vs veh, ARL8B / RFU, ZBTB11 / Fold change vs veh, ZBTB11 / RFU, TAMM41 / Fold change vs veh, TAMM41 / RFU, KIAA1704 /// LOC100996395 / Fold change vs veh, KIAA1704 /// LOC100996395 / RFU, ING1 / Fold change vs veh, ING1 / RFU, TRMT61B / Fold change vs veh, TRMT61B / RFU, FUBP3 / Fold change vs veh, FUBP3 / RFU, TP53 / Fold change vs veh, TP53 / RFU, TNKS2 / Fold change vs veh, TNKS2 / RFU, ZFP14 / Fold change vs veh, ZFP14 / RFU, ACTR2 / Fold change vs veh, ACTR2 / RFU, PPP3R1 / Fold change vs veh, PPP3R1 / RFU, PIK3R1 / Fold change vs veh, PIK3R1 / RFU, HNRNPA1 / Fold change vs veh, HNRNPA1 / RFU, RNF170 / Fold change vs veh, RNF170 / RFU, ZNF28 / Fold change vs veh, ZNF28 / RFU, RNGTT / Fold change vs veh, RNGTT / RFU, OGT / Fold change vs veh, OGT / RFU, BRD1 / Fold change vs veh, BRD1 / RFU, MARS / Fold change vs veh, MARS / RFU, ZNF655 / Fold change vs veh, ZNF655 / RFU, FAHD1 / Fold change vs veh, FAHD1 / RFU, BDP1 / Fold change vs veh, BDP1 / RFU, LRRCC1 / Fold change vs veh, LRRCC1 / RFU, ARID1A / Fold change vs veh, ARID1A / RFU, ZNF146 / Fold change vs veh, ZNF146 / RFU, ZNF330 / Fold change vs veh, ZNF330 / RFU, GPN3 / Fold change vs veh, GPN3 / RFU, C9orf123 / Fold change vs veh, C9orf123 / RFU, N4BP2L2 / Fold change vs veh, N4BP2L2 / RFU, ARFIP1 / Fold change vs veh, ARFIP1 / RFU, FAM179B / Fold change vs veh, FAM179B / RFU, BCL10 / Fold change vs veh, BCL10 / RFU, UHRF1BP1L / Fold change vs veh, UHRF1BP1L / RFU, BET1 / Fold change vs veh, BET1 / RFU, CNOT2 / Fold change vs veh, CNOT2 / RFU, ZNF268 / Fold change vs veh, ZNF268 / Fold change vs veh, ZNF507 / RFU, DGCR2 / Fold change vs veh, DGCR2 / RFU, WDSUB1 / Fold change vs veh, WDSUB1 / Fold change vs veh, HSP90B1 /// MIR3652 / RFU, ADSS / Fold change vs veh, ADSS / RFU, GK / Fold change vs veh, GK / RFU, ZNF148 / Fold change vs veh, ZNF148 / RFU, TAF9 / Fold change vs veh, TAF9 / RFU, SLC1A5 / Fold change vs veh, SLC1A5 / RFU, SLMO2 / Fold change vs veh, SLMO2 / RFU, ABCC4 / Fold change vs veh, ABCC4 / RFU, LOC101060439 /// RAP1B / Fold change vs veh, LOC101060439 /// RAP1B / RFU, RFX7 / Fold change vs veh, RFX7 / RFU, GTPBP10 / Fold change vs veh, GTPBP10 / RFU, CNEP1R1 / Fold change vs veh, CNEP1R1 / RFU, BIVM-ERCC5 /// ERCC5 / Fold change vs veh, BIVM-ERCC5 /// ERCC5 / RFU, ILF3 / Fold change vs veh, ILF3 / RFU 11762660_at / Fold change /veh 11762660_at / RFU VCAN (11757783_s_at) / Fold change /veh VCAN (11757783_s_at) / RFU DDX43 (11728927_at) / Fold change /veh DDX43 (11728927_at) / RFU KRT8 (11758188_x_at) / Fold change /veh KRT8 (11758188_x_at) / RFU NKD1 (11759106_at) / Fold change /veh NKD1 (11759106_at) / RFU SRD5A1 (11742802_a_at) / Fold change /veh SRD5A1 (11742802_a_at) / RFU TPSAB1 /// TPSB2 (11721975_s_at) / Fold change /veh TPSAB1 /// TPSB2 (11721975_s_at) / RFU GSTM3 (11746129_a_at) / Fold change /veh GSTM3 (11746129_a_at) / RFU IL23R (11737362_x_at) / Fold change /veh IL23R (11737362_x_at) / RFU TMEM51 (11727254_a_at) / Fold change /veh TMEM51 (11727254_a_at) / RFU PIWIL2 (11732686_x_at) / Fold change /veh PIWIL2 (11732686_x_at) / RFU ORM1 (11744905_x_at) / Fold change /veh ORM1 (11744905_x_at) / RFU CCDC152 (11743942_at) / Fold change /veh CCDC152 (11743942_at) / RFU ECM1 (11717891_a_at) / Fold change /veh ECM1 (11717891_a_at) / RFU IL23R (11748794_a_at) / Fold change /veh IL23R (11748794_a_at) / RFU TNFAIP8L3 (11732012_x_at) / Fold change /veh TNFAIP8L3 (11732012_x_at) / RFU MBOAT4 (11741988_at) / Fold change /veh MBOAT4 (11741988_at) / RFU 11764193_at / Fold change /veh 11764193_at / RFU TMEM53 (11763286_at) / Fold change /veh TMEM53 (11763286_at) / RFU MAGEB2 (11727129_at) / Fold change /veh MAGEB2 (11727129_at) / RFU TMEM200A (11744735_a_at) / Fold change /veh TMEM200A (11744735_a_at) / RFU CCDC152 (11751479_a_at) / Fold change /veh CCDC152 (11751479_a_at) / RFU FAM211A (11726209_a_at) / Fold change /veh FAM211A (11726209_a_at) / RFU RGS16 (11746705_a_at) / Fold change /veh RGS16 (11746705_a_at) / RFU VCAN (11755009_s_at) / Fold change /veh VCAN (11755009_s_at) / RFU RHOB (11743442_s_at) / Fold change /veh RHOB (11743442_s_at) / RFU RGS16 (11720943_a_at) / Fold change /veh RGS16 (11720943_a_at) / RFU RGS16 (11720944_at) / Fold change /veh RGS16 (11720944_at) / RFU, VPS4B / Fold change vs veh, VPS4B / RFU, CREB1 / Fold change vs veh, CREB1 / RFU, DNAJC13 / Fold change vs veh, DNAJC13 / RFU, GNAQ / Fold change vs veh, GNAQ / RFU, CDK5R1 / Fold change vs veh, CDK5R1 / RFU, ZRANB3 / Fold change vs veh, ZRANB3 / RFU, CUL4A / Fold change vs veh, CUL4A / RFU, CCNY / Fold change vs veh, CCNY / RFU, UFL1 / Fold change vs veh, UFL1 / RFU, COG3 / Fold change vs veh, COG3 / RFU, DIAPH2 / Fold change vs veh, DIAPH2 / RFU, SKA2 / Fold change vs veh, SKA2 / RFU, AFF3 / Fold change vs veh, AFF3 / RFU, LMF1 / Fold change vs veh, LMF1 / RFU, IPO11 / Fold change vs veh, IPO11 / RFU, DFFB / Fold change vs veh, DFFB / RFU, FOXP1 / Fold change vs veh, FOXP1 / RFU, CARD8 / Fold change vs veh, CARD8 / RFU, STRN3 / Fold change vs veh, STRN3 / RFU, ADK / Fold change vs veh, ADK / RFU, RASSF2 / Fold change vs veh, RASSF2 / RFU, WIPF1 / Fold change vs veh, WIPF1 / RFU, LARP1B / Fold change vs veh, LARP1B / RFU, RASA1 / Fold change vs veh, RASA1 / RFU, RB1 / Fold change vs veh, RB1 / RFU, PPFIA1 / Fold change vs veh, PPFIA1 / RFU, MAT2A / Fold change vs veh, MAT2A / RFU, CCT5 / Fold change vs veh, CCT5 / RFU, WDR92 / Fold change vs veh, WDR92 / RFU, CUX1 / Fold change vs veh, CUX1 / RFU, TTC7A / Fold change vs veh, TTC7A / RFU, TMEM135 / Fold change vs veh, TMEM135 / RFU, DEPTOR / Fold change vs veh, DEPTOR / RFU, CPM / Fold change vs veh, CPM / RFU, DNAJB6 / Fold change vs veh, DNAJB6 / RFU, CACNA2D3 / Fold change vs veh, CACNA2D3 / RFU, DTX4 / Fold change vs veh, DTX4 / RFU, TFCP2 / Fold change vs veh, TFCP2 / RFU, GMCL1 /// GMCL1P1 / Fold change vs veh, GMCL1 /// GMCL1P1 / RFU, AEBP2 / Fold change vs veh, AEBP2 / RFU, SNHG1 /// SNORD22 /// SNORD25 /// SNORD26 /// SNORD27 /// SNORD28 /// SNORD29 /// SNORD31 / Fold change vs veh, SNHG1 /// SNORD22 /// SNORD25 /// SNORD26 /// SNORD27 /// SNORD28 /// SNORD29 /// SNORD31 / Fold change (Aza/veh), C12orf56 (ProbeSet 11735607_a_at) / Fold change (ACY-1035/veh), C12orf56 (ProbeSet 11735607_a_at) / Fold change (Aza/veh), FGFR1OP (ProbeSet 11751329_s_at) / Fold change (ACY-1035/veh), FGFR1OP (ProbeSet 11751329_s_at) / Fold change (Aza/veh), VPS36 (ProbeSet 11739960_a_at) / Fold change (ACY-1035/veh), VPS36 (ProbeSet 11739960_a_at) / RFU SYPL1 (11715823_x_at) / Fold change /veh SYPL1 (11715823_x_at) / RFU IGFBP7 (11715501_s_at) / Fold change /veh IGFBP7 (11715501_s_at) / RFU REEP3 (11722064_at) / Fold change /veh REEP3 (11722064_at) / RFU IGLL1 (11728026_x_at) / Fold change /veh IGLL1 (11728026_x_at): dose or concentration left out as unconfirmed
Details: MV-4-11 cells, 48 hours

Nc1ncn([C@@H]2O[C@H](CO)[C@@H](O)[C@H]2O)c(=O)n1 [azacitidine]
RFU NPB (11741838_a_at): 80.08 RFU
